One data set has as its target T1, glycine receptors (Rattus norvegicus, UniProt P07727).
T1 construct: from tissue; host or cells: rat spinal cord / brainstem synaptic membranes (inferred from the cited method)
The data set is described as follows: binding tests, affinity to glycine receptors (% displacement). From the text: The compounds of the invention have shown in binding tests a higher affinity to glycine receptors (Table I) than a structurally similar compound, i.e. thiocolchicoside.
The interaction of the compositions of the invention with their receptors has been evaluated according to the procedure by A. B. Young and S. H. Snyder reported in Proc. Natl. Acad. Sci U.S.A. 71, 4002, 1974.

Data set [1] relates to polysynaptic reflexes induced by strychnine. The data set is described as follows: inhibition of the polysynaptic reflexes induced by strychnine in rabbits. The class given is in vivo, rabbit. The conditions noted are these: for reduction of polysynaptic reflexes / removal of the potentiation of strychnine-induced reflexes: rabbits, 1 mg/kg intramuscularly. The text has this:
The inhibition of the polysynaptic reflexes induced by strychnine in rabbits has been studied for the in vivo tests.

A short description of data set [2]: acute toxicity (DL50) in the mouse. The conditions noted are these: in vivo, iv. As for the experimental part: The DL50 of the compounds I-III is, in fact, higher than 30 mg/kg i.v. in the mouse, the DL50 of thiocolchicoside being 7.5 mg/kg.

Molecules are shown by their SMILES.

T1 sequence (P07727 29-457): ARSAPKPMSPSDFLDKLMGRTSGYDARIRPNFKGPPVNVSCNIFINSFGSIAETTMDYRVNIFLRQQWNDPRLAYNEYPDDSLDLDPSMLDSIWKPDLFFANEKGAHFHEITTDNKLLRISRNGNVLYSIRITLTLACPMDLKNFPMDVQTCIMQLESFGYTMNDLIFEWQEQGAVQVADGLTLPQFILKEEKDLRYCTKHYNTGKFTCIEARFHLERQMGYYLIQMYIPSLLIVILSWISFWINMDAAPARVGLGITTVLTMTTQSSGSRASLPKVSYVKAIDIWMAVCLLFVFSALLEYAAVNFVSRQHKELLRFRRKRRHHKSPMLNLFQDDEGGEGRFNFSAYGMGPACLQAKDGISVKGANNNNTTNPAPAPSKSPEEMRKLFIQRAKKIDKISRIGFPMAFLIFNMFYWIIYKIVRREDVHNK
T1 sequence (P20781 23-496 partner): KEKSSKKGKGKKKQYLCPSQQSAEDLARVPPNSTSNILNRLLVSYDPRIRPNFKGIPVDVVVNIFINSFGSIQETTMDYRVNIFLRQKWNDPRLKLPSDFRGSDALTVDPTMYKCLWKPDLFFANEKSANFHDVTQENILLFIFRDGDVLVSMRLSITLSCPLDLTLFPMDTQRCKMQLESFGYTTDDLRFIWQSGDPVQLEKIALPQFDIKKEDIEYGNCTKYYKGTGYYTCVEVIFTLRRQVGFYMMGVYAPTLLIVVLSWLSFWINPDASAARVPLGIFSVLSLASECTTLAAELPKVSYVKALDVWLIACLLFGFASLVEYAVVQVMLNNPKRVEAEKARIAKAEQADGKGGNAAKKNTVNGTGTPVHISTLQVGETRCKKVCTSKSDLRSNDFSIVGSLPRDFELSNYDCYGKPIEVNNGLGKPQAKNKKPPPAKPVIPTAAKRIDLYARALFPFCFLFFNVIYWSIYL

On glycine receptors, `COc1c(OCC2CO2)cc2c(c1OC)-c1ccc(SC)c(=O)cc1[C@@H](NC(C)=O)CC2` (some centres unmarked) [Compound I, 3-demethyl-3-glycidylthiocolchicine] showed an inhibition at 0.1 µM of 40% and an inhibition at 1 µM of 85%. Besides, in data set [1], the “reduction of polysynaptic reflexes” value worked out at 50% and the “removal of the potentiation of strychnine-induced reflexes” value is “removing completely”.
The like results for `COc1c(OCC(O)CO)cc2c(c1OC)-c1ccc(SC)c(=O)cc1[C@@H](NC(C)=O)CC2` (some centres unmarked) [Compound II, 3-demethyl-3-(2,3-dihydroxyrpropyl)thiocolchicine] were, in that order, 35%, 65%, 60% and “removing completely”.
In the case of `COc1c(OCC(O)CN)cc2c(c1OC)-c1ccc(SC)c(=O)cc1[C@@H](NC(C)=O)CC2` (some centres unmarked) [Compound III, 3-demethyl-3-(3-amino-2-hydroxypropyl)thiocolchicine], at glycine receptors, the inhibition at 0.1 µM amounted to 50% and 1 µM produced 75% inhibition. For the same compound, in data set [1], the “reduction of polysynaptic reflexes” value amounted to 65% and the “removal of the potentiation of strychnine-induced reflexes” value is recorded as “removing completely”.
On glycine receptors, `COc1c(O[C@@H]2O[C@H](CO)[C@@H](O)[C@H](O)[C@H]2O)cc2c(c1OC)-c1ccc(SC)c(=O)cc1[C@@H](NC(C)=O)CC2` [thiocolchicoside, 3-demethyl-thiocolchicine glucoside, reference compound] yielded an inhibition at 0.1 µM of 20% and an inhibition at 1 µM of 70%. The compound further had an inhibition at 0.5 µM at glycine receptors (0.5 μM) of 45%. This compound gave an LD50 in data set [2] of 7.5 mg/kg. For the same compound, the minimal effective dose at 1 mg/kg in data set [1] (Oryctolagus cuniculus, read-out: minimum dose to obtain comparable effects) is at least 5 mg/kg.

A word on the inhibition: it is how much of the control response was suppressed. Read a low inhibition as a response near the control. The LD50 is the dose at which mortality reaches 50%. Low readings indicate greater toxicity, high ones lower toxicity.

These data come from patent publication US5973204A (priority 1997, dated 1999).
